We go through six compounds from ChEMBL document CHEMBL1149557, “Induction of GRP78 by valproic acid is dependent upon histone deacetylase inhibition” (2007).

The target in test [1] is Glycogen synthase kinase-3 beta (Homo sapiens) (UniProt P49841). Put plainly: Inhibition of GSK3-beta at 2 mM relative to control.
Test [2] has as its target T1, Histone deacetylase (Homo sapiens) (UniProt Q13547+O15379+Q9UBN7+Q92769+Q9UQL6+Q8WUI4+Q9BY41+Q96DB2+P56524+Q9UKV0+Q969S8). Put plainly: Inhibition of HDAC in HEK293 cells assessed as increase in histone H4 acetylation at 1 mM after 48 hrs relative to control. It counts as cell-based.
Test [3] deals with HEK293. Put plainly: Increase in protein disulfide isomerase level in HEK293 cells at 1 mM by immunoblot. It counts as functional, cell-based. Conditions: Homo sapiens. (In general: Immunoblotting shows a protein as a band on a membrane.)
Test [4] has as its system HEK293. Put plainly: (§1) Increase in GRP78 protein level in HEK293 cells at 1 mM by immunoblot. In kind it is functional, cell-based. The settings on record: Homo sapiens.
Test [5] deals with HEK293. Described as §1. It counts as functional, Homo sapiens.
The target of test [6] is T1, Histone deacetylase (Homo sapiens). The experiment in a line: Inhibition of HDAC in HEK293 cells assessed as increase in histone H4 acetylation at 2 mM after 48 hrs. It counts as cell-based.
For test [7], the system named is HEK293. The experiment in a line: Increase in protein disulfide isomerase level in HEK293 cells at 2 mM by immunoblot. In kind it is functional, cell-based. The settings on record: Homo sapiens.
For test [8], the system named is HEK293. Put plainly: Increase in GRP78 protein level in HEK293 cells at 2 mM by immunoblot. In kind it is functional, cell-based. Conditions: Homo sapiens.
The subject of test [9] is HEK293. Put plainly: Increase in GRP78 protein level in HEK293 cells at 10 ug/mL by immunoblot. In kind it is functional, cell-based. The settings on record: Homo sapiens.
Test [10] relates to HEK293. Put plainly: Induction of GADD153/CHOP protein level in HEK293 cells by immunoblot. In kind it is functional, cell-based. The settings on record: Homo sapiens.
Test [11] relates to HEK293. Put plainly: Increase in protein disulfide isomerase level in HEK293 cells at 10 ug/ml by immunoblot. Conditions: Homo sapiens. In kind it is functional, cell-based.
Test [12] deals with HEK293. Put plainly: Increase in GRP78 protein level in HEK293 cells at 600 nM by immunoblot. In kind it is functional, cell-based. Conditions: Homo sapiens.
The test system of test [13] is HEK293. The experiment in a line: Increase in protein disulfide isomerase level in HEK293 cells at 600 nM by immunoblot. The settings on record: Homo sapiens. It counts as functional, cell-based.

Structures are written as SMILES. Activity calls are given as the source filed them. The calls are words filed in the database; no cut-off is given here.

Chain of Glycogen synthase kinase-3 beta (Homo sapiens) (P49841 whole entry, looked up): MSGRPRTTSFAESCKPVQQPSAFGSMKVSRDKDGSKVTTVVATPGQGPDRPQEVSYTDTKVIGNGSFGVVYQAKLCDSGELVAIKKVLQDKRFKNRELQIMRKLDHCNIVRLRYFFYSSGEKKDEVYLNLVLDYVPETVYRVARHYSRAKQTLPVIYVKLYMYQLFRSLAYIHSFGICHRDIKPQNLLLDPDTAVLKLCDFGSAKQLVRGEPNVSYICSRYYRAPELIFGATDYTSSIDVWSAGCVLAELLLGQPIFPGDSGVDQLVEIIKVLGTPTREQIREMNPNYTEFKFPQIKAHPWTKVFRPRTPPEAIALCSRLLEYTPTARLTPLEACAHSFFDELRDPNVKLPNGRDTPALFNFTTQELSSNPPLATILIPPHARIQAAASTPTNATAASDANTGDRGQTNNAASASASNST

As to `CCCC(CCC)C(=O)O` [VALPROIC ACID], in [1], the inhibition was 65.2%. Besides, the figures for the Fold change in test [2] and in test [5] were 3.5 and 2, respectively. Further, the outcome in test [3] and in test [4] was Active.
In the case of `CC/C=C(\CCC)C(=O)O`, the outcome in test [6], in test [7] and in [8] was Active. In addition, the inhibition in [1] was found to be 91.3%.
As to `CC(=O)N[C@H]1[C@@H](O[C@@H]2O[C@H](CC(O)[C@H]3O[C@@H](n4ccc(=O)[nH]c4=O)[C@H](O)[C@@H]3O)[C@H](O)[C@H](O)[C@H]2NC(=O)/C=C/CC(C)C)O[C@H](CO)[C@@H](N)[C@@H]1O` (some centres undefined), the outcome in test [9], in test [10] and in test [11] was Active.
Take `CCC(CC)C(=O)O`: the outcome in test [6] and in test [8] was inactive. Moreover, the inhibition in test [1] was 2.9%.
For `O=C(O)CCCc1ccccc1`, the result in [6] was inactive. Moreover, in [1], the inhibition came to 126%.
With `CC(/C=C/C(=O)NO)=C\[C@@H](C)C(=O)c1ccc(N(C)C)cc1`, the outcome in test [12] and in test [13] was Active.

For orientation: inhibition means the change of the read-out against control, counted positive when it falls.
